The results in this text go back to BindingDB's records for doi:10.1074/jbc.M402433200 (University of Bristol, 2004).

Each structure is given as a SMILES string.

In general, IC50 refers to the point on the concentration scale where inhibition reaches its midpoint. A low value points to greater potency. In general, Ki refers to a dissociation constant, usually derived from enzyme kinetics or from competition with a known ligand. Low values mean tighter binding, high ones weaker binding.

For assay [1], the target named is L-lactate dehydrogenase B chain (Homo sapiens, UniProt P07195). In words: Lactate Dehydrogenase Inhibition Assay. An excerpt: (§1) An LDH enzymatic assay developed for high throughput format was used. The dehydrogenase reaction was run in the lactate to pyruvate direction and coupled with the ability of diaphorase to reduce p-iodonitrotetrazolium violet using the NADH generated in the conversion of lactate to pyruvate. The progression of the coupling reaction was monitored as the increase of absorbance at 492 nm. Positive hits were subjected to additional analysis to determine IC50 values.
Chain of L-lactate dehydrogenase B chain (P07195 whole entry): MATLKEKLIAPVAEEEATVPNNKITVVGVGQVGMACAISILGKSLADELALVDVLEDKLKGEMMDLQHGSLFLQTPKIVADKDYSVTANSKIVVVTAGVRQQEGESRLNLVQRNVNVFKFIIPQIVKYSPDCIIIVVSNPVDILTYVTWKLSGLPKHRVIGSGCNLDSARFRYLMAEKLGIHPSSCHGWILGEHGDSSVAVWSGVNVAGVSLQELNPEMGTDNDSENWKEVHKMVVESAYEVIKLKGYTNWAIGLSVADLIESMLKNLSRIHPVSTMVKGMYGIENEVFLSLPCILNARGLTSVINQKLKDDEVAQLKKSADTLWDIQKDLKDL

For the next assay, the target named is L-lactate dehydrogenase (Plasmodium falciparum (isolate CDC / Honduras), UniProt Q27743). In words: Lactate Dehydrogenase Inhibition Assay. Particulars: pH 7.5; 25 °C.
Chain of L-lactate dehydrogenase (Q27743 whole entry): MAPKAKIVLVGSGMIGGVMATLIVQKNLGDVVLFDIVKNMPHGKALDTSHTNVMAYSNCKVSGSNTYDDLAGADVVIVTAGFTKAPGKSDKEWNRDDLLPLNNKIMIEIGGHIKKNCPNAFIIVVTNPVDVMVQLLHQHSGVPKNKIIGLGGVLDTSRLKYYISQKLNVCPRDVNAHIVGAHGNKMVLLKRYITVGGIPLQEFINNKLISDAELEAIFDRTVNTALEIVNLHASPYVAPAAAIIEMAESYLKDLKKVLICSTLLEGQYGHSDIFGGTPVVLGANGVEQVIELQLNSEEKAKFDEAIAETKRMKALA
From the text: as §1

With `O=C(O)c1cnon1` [1,2,5-oxadiazole-3-carboxylic acid], the IC50 (in assay [1]; on L-lactate dehydrogenase) was > 200 µM throughout.

Turning to `O=C(O)c1c(O)nnn1Cc1ccccc1` [1-benzyl-4-hydroxy-1H-1,2,3-triazole-5-carboxylic acid], the IC50 (in assay [1]; against L-lactate dehydrogenase) was > 100 µM in each case.

On to `O=C(O)c1cnn[nH]1` [1H-1,2,3-triazole-5-carboxylic acid], for which the IC50 in assay [1] was > 200 µM; on L-lactate dehydrogenase, 98 µM.

As to `O=C(O)Cc1no[nH]c1=O` [2-(4-hydroxy-1,2,5-oxadiazol-3-yl)acetic acid], the IC50 (in assay [1]; against L-lactate dehydrogenase) was > 200 µM throughout.

As to `O=C(O)c1nn(Cc2ccccc2)[nH]c1=O` [2-benzyl-5-hydroxy-2H-1,2,3-triazole-4-carboxylic acid], the IC50 (in assay [1]; against L-lactate dehydrogenase) was > 100 µM throughout.

For `Cn1occ(C(=O)O)c1=O` [2-methyl-3-oxo-2,3-dihydro-1,2-oxazole-4-carboxylic acid], the IC50 (in assay [1]; on L-lactate dehydrogenase) was > 100 µM throughout.

On to `O=C(O)c1conc1O` [3-hydroxy-1,2-oxazole-4-carboxylic acid], for which the half-inhibitory concentration (IC50) in assay [1] came to 54 µM. Besides, on L-lactate dehydrogenase, the IC50 came to 1.1 µM and the Ki came to 0.47 µM.

As for `Cc1o[nH]c(=O)c1C(=O)O` [3-hydroxy-5-methyl-1,2-oxazole-4-carboxylic acid], the IC50 (in assay [1]; against L-lactate dehydrogenase) was > 100 µM throughout.

Turning to `COc1nocc1C(=O)O` [3-methoxy-1,2-oxazole-4-carboxylic acid], the IC50 (in assay [1]; on L-lactate dehydrogenase) was > 100 µM throughout.

As for `O=C(O)c1nonc1NCCO` [4-[(2-hydroxyethyl)amino]-1,2,5-oxadiazole-3-carboxylic acid], the IC50 (in assay [1]; on L-lactate dehydrogenase) was > 200 µM in each case.

Regarding `Nc1nonc1C(=O)O` [4-amino-1,2,5-oxadiazole-3-carboxylic acid], the IC50 (in assay [1]; against L-lactate dehydrogenase) was > 200 µM throughout.

As for `Nc1nsnc1C(=O)O` [4-amino-1,2,5-thiadiazole-3-carboxylic acid], the IC50 (in assay [1]; at L-lactate dehydrogenase) was > 100 µM each time.

For the molecule `O=C(O)c1nonc1O` [4-hydroxy-1,2,5-oxadiazole-3-carboxylic acid], the concentration for half-maximal inhibition (IC50) in assay [1] turned out to be 72.1 µM. On L-lactate dehydrogenase, this molecule displayed an IC50 of 0.65 µM and a Ki of 0.21 µM.

`O=C(O)c1nsnc1O` [4-hydroxy-1,2,5-thiadiazole-3-carboxylic acid]: the midpoint of inhibition in assay [1], the IC50, lay at 10.3 µM. In addition, on L-lactate dehydrogenase, inhibition was half-maximal at 0.14 µM (IC50) and affinity was put at a Ki of 0.29 µM.

`O=C(O)c1noc(C(=O)O)c1O` [4-hydroxy-1,2-oxazole-3,5-dicarboxylic acid]: the IC50 was > 100 µM in assay [1] and 81 µM at L-lactate dehydrogenase.

As for `O=C(O)c1nocc1O` [4-hydroxy-1,2-oxazole-3-carboxylic acid], the IC50 is > 100 µM in assay [1] and 16 µM at L-lactate dehydrogenase.

For the molecule `Cn1nnc(O)c1C(=O)O` [4-hydroxy-1-methyl-1H-1,2,3-triazole-5-carboxylic acid], the IC50 (in assay [1]; against L-lactate dehydrogenase) was > 100 µM each time.

Turning to `COc1nsnc1C(=O)O` [4-methoxy-1,2,5-thiadiazole-3-carboxylic acid], the IC50 (in assay [1]; against L-lactate dehydrogenase) was > 100 µM each time.

For `O=C(O)c1nonc1OC/C=C/c1ccccc1` [4-{[(2E)-3-phenylprop-2-en-1-yl]oxy}-1,2,5-oxadiazole-3-carboxylic acid], the IC50 (in assay [1]; against L-lactate dehydrogenase) was > 200 µM each time.

As for `Cn1nc(O)c(C(=O)O)n1` [5-hydroxy-2-methyl-2H-1,2,3-triazole-4-carboxylic acid], the IC50 (in assay [1]; on L-lactate dehydrogenase) was > 100 µM throughout.

Turning to `O=C(OCc1ccc(Cl)c(Cl)c1)c1no[nH]c1=O` [(3,4-dichlorophenyl)methyl 4-hydroxy-1,2,5-oxadiazole-3-carboxylate], the IC50 (in assay [1]; against L-lactate dehydrogenase) was > 200 µM throughout.

For the molecule `CCOC(=O)c1co[nH]c1=O` [ethyl 3-hydroxy-1,2-oxazole-4-carboxylate], the concentration for half-maximal inhibition (IC50) (in assay [1]; against L-lactate dehydrogenase) was > 100 µM in each case.

As to `CCOC(=O)c1nonc1OCc1ccc(OC)cc1` [ethyl 4-[(4-methoxyphenyl)methoxy]-1,2,5-oxadiazole-3-carboxylate], the IC50 (in assay [1]; at L-lactate dehydrogenase) was > 200 µM in each case.

Regarding `CCOC(=O)c1nonc1O` [ethyl 4-hydroxy-1,2,5-oxadiazole-3-carboxylate], the IC50 (in assay [1]; on L-lactate dehydrogenase) was > 100 µM each time.

On to `CCOC(=O)c1c[nH]oc1=O` [ethyl 5-hydroxy-1,2-oxazole-4-carboxylate], for which the IC50 (in assay [1]; on L-lactate dehydrogenase) was > 100 µM each time.

`COC(=O)c1c(C)[nH]oc1=O` [methyl 5-hydroxy-3-methyl-1,2-oxazole-4-carboxylate]: the IC50 (in assay [1]; against L-lactate dehydrogenase) was > 100 µM each time.
